Where a name gives a salt, the structure may show the parent alone. Read-outs that look alike come from different tables or passages of the source.
Experiments:
Format in all cases: biochemical
recombinant PRL-1 = biological target: T1, recombinant PRL-1 (Homo sapiens, UniProt Q93096); assay: In vitro phosphatase assay (DiFMUP hydrolysis), PRL-1; further: test concentration or dose not given here
T1 construct: 6xHis (N, cleaved yes); made in house; host or cells: E. coli One Shot BL21 Star
T1 sequence (Q93096 1-173): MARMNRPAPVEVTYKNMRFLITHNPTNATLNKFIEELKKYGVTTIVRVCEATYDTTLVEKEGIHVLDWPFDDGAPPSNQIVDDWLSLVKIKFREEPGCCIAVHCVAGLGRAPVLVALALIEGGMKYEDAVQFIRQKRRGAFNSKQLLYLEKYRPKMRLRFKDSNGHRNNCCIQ

recombinant PRL-3 = biological target: T2, recombinant PRL-3 (Homo sapiens, UniProt O75365); assay: In vitro phosphatase assay (DiFMUP hydrolysis), PRL-3; further: test concentration or dose not given here
T2 construct: 6xHis (N, cleaved yes); made in house; host or cells: E. coli One Shot BL21 Star

recombinant PRL-2 = biological target: T3, recombinant PRL-2 (Homo sapiens, UniProt Q12974); assay: In vitro phosphatase assay (DiFMUP hydrolysis), PRL-2;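 further: PRL-2 activity read as DiFMUP hydrolysis after 20 min at room temperature with drug, enzyme first pre-reduced at 4 °C for 20 min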
T3 construct: 6xHis (N, cleaved yes); made in house; host or cells: E. coli One Shot BL21 Star
T3 sequence (Q12974 1-167): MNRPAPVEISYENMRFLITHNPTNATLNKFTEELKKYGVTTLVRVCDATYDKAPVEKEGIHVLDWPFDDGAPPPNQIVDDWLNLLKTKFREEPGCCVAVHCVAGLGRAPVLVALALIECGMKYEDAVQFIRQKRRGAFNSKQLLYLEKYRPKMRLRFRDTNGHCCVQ

[1] = FDA-approved drug screen, compared to DMSO
[2] = FDA-approved drug screen, activity compared to DMSO

T2 sequence (O75365 whole entry): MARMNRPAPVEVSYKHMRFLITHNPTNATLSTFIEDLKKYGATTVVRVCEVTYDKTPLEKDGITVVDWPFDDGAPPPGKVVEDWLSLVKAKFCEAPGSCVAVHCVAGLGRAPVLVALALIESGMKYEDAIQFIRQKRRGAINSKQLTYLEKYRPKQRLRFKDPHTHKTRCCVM

| SMILES | % Phosphatase Activity (compared to DMSO) PRL-1 (recombinant PRL-1; [1]) | % Phosphatase Activity (compared to DMSO) PRL-3 (recombinant PRL-3; [1]) | % Phosphatase Activity (compared to DMSO) PRL-2 (recombinant PRL-2; [1]) | other results |
| --- | --- | --- | --- | --- |
| OCCOCCN1CCN(C2=Nc3ccccc3Sc3ccccc32)CC1 [Quetiapine Fumarate] | – | – | – | % Phosphatase Activity (compared to DMSO) PRL-1 (recombinant PRL-1): 80%; % Phosphatase Activity (compared to DMSO) PRL-3 (recombinant PRL-3): 93%; % Phosphatase Activity (compared to DMSO) PRL-2 (recombinant PRL-2): 87% |
| CC(NC(C)(C)C)C(=O)c1cccc(Cl)c1.Cl (stereo not drawn) [Amfebutamone HCl] | 102% | 77% | 110% | – |
| Nc1nc2[nH]cc(CCc3ccc(C(=O)N[C@@H](CCC(=O)O)C(=O)O)cc3)c2c(=O)[nH]1 [Pemetrexed] | 92% | 98% | 86% | – |
| CCCC(C(=O)OCCN(CC)CC)(c1ccccc1)c1ccccc1 [Proadifen HCl] | 94% | 105% | 106% | – |
| Cc1ccc(C(=O)c2cc(O)c(O)c([N+](=O)[O-])c2)cc1 [Tolcapone] | – | – | – | % Phosphatase Activity (compared to DMSO) PRL-1 (recombinant PRL-1; [2]): 78%; % Phosphatase Activity (compared to DMSO) PRL-3 (recombinant PRL-3; [2]): 71%; % Phosphatase Activity (compared to DMSO) PRL-2 (recombinant PRL-2; [2]): 89% |
| O=C(O)P(=O)(O)O [Foscarnet Sodium] | 109% | 91% | 109% | – |
| CCCCC[C@H](O)/C=C/[C@H]1[C@H](O)CC(=O)[C@@H]1CCCCCCC(=O)O [Alprostadil] | 117% | 98% | 113% | – |
| COCCCOc1ccnc(C[S+]([O-])c2nc3ccccc3[n-]2)c1C.[Na+] (stereo not drawn) [Rebeprazole sodium] | 97% | 78% | 99% | – |
| Nc1ccn([C@@H]2O[C@H](CO)[C@@H](O)[C@@H]2O)c(=O)n1 [Cytarabine] | 104% | 91% | 86% | – |
| CCC(=O)NCC[C@@H]1CCc2ccc3c(c21)CCO3 [Ramelteon] | 91% | 73% | 96% | – |
| CNC(=O)c1cc(Oc2ccc(NC(=O)Nc3ccc(Cl)c(C(F)(F)F)c3)c(F)c2)ccn1 [Regorafenib (BAY 73-4506)] | 86% | 79% | 88% | – |
| Clc1ccc(COC(Cn2ccnc2)c2ccc(Cl)cc2Cl)c(Cl)c1 (stereo not drawn) [Miconazole Nitrate] | 98% | 92% | 93% | – |
| O=C(N/N=C/c1ccc([N+](=O)[O-])o1)c1ccc(O)cc1 [Nifuroxazide] | 68% | 57% | 62% | – |
| CCCc1nn(C)c2c(=O)[nH]c(-c3cc(S(=O)(=O)N4CCN(C)CC4)ccc3OCC)nc12 [Sildenafil Citrate] | – | – | – | % Phosphatase Activity (compared to DMSO) PRL-1 (recombinant PRL-1; [2]): 100%; % Phosphatase Activity (compared to DMSO) PRL-3 (recombinant PRL-3; [2]): 84%; % Phosphatase Activity (compared to DMSO) PRL-2 (recombinant PRL-2; [2]): 88% |
| CCCC1O[C@@H]2C[C@H]3[C@@H]4CCC5=CC(=O)C=C[C@]5(C)[C@H]4[C@@H](O)C[C@]3(C)[C@]2(C(=O)CO)O1 (stereo partly drawn) [Budesonide] | 93% | 76% | 100% | – |
| CC1=NN(c2ccccc2)C(=O)C1 [Edaravone] | 90% | 72% | 82% | – |
| O=C1Nc2ccc(Cl)cc2[C@@](C#CC2CC2)(C(F)(F)F)O1 [Efavirenz] | 87% | 97% | 72% | – |
| NC(=O)CCC(N)C(=O)O (stereo in doubt) [D-glutamine] | 96% | 94% | 80% | – |
| CNC[C@H](O)c1ccc(O)c(O)c1 [Epinephrine Bitartrate] | – | – | – | % Phosphatase Activity (compared to DMSO) PRL-1 (recombinant PRL-1): 116%; % Phosphatase Activity (compared to DMSO) PRL-3 (recombinant PRL-3): 82%; % Phosphatase Activity (compared to DMSO) PRL-2 (recombinant PRL-2): 90% |
| Nc1ncn([C@@H]2O[C@H](CO)[C@@H](O)[C@H]2O)c(=O)n1 [Azacitidine] | 78% | 89% | 93% | – |

| SMILES | % Phosphatase Activity (compared to DMSO) PRL-1 (recombinant PRL-1; [1]) | % Phosphatase Activity (compared to DMSO) PRL-3 (recombinant PRL-3; [1]) | % Phosphatase Activity (compared to DMSO) PRL-2 (recombinant PRL-2; [1]) | other results |
| --- | --- | --- | --- | --- |
| N#C/C(=C1/SC[C@@H](c2ccc(Cl)cc2Cl)S1)n1ccnc1 [Luliconazole] | 98% | 83% | 90% | – |
| CC(=O)Oc1ccccc1C(=O)O [Aspirin] | 126% | 102% | 110% | – |
| O=C1c2ccccc2C(=O)C1c1ccccc1 [Phenindione] | 93% | 84% | 100% | – |
| CNC[C@H](O)[C@@H](O)[C@H](O)[C@H](O)CO.CNC[C@H](O)[C@@H](O)[C@H](O)[C@H](O)CO.C[C@@H](O[C@H]1OCCN(Cc2nn(P(=O)(O)O)c(=O)[nH]2)[C@H]1c1ccc(F)cc1)c1cc(C(F)(F)F)cc(C(F)(F)F)c1 [Fosaprepitant dimeglumine salt] | 87% | 85% | 94% | – |
| C#CCN[C@@H]1CCc2ccccc21 [Rasagiline Mesylate] | – | – | – | % Phosphatase Activity (compared to DMSO) PRL-1 (recombinant PRL-1): 116%; % Phosphatase Activity (compared to DMSO) PRL-3 (recombinant PRL-3): 99%; % Phosphatase Activity (compared to DMSO) PRL-2 (recombinant PRL-2): 130% |
| O=C(O)CSCC(=O)NC1CCSC1=O (stereo not drawn) [Erdosteine] | 93% | 95% | 89% | – |
| Nc1ncnc2c1ncn2[C@@H]1O[C@H](CO)[C@@H](O)[C@@H]1O [Vidarabine] | – | – | – | % Phosphatase Activity (compared to DMSO) PRL-1 (recombinant PRL-1; [2]): 106%; % Phosphatase Activity (compared to DMSO) PRL-3 (recombinant PRL-3; [2]): 121%; % Phosphatase Activity (compared to DMSO) PRL-2 (recombinant PRL-2; [2]): 116% |
| CO/N=C(\C(=O)N[C@@H]1C(=O)N2C(C(=O)O)=C(CSC(=O)c3ccco3)CS[C@H]12)c1csc(N)n1.Cl [Ceftiofur HCl] | 107% | 84% | 104% | – |
| CCn1cc(C(=O)O)c(=O)c2cnc(N3CCCC3)nc21 [Piromidic Acid] | 105% | 96% | 106% | – |
| C[C@]1(O)C[C@@H](c2nc(-c3ccc4ccc(-c5ccccc5)nc4c3)c3c(N)nccn32)C1 [OSI-906 (Linsitinib)] | 79% | 77% | 96% | – |
| CC(C(=O)O)c1cccc(C(=O)c2ccccc2)c1 (stereo not drawn) [Ketoprofen] | 105% | 87% | 95% | – |
| CC(C)C[C@H](NC(=O)[C@@H](NC(=O)c1cccc(-c2ccccc2)n1)[C@@H](C)O)B(O)O [CEP-18770 (Delanzomib)] | 103% | 82% | 98% | – |
| CC[C@]1(O)C[C@H]2CN(CCc3c([nH]c4ccccc34)[C@@](C(=O)OC)(c3cc4c(cc3OC)N(C=O)[C@H]3[C@@](O)(C(=O)OC)[C@H](OC(C)=O)[C@]5(CC)C=CCN6CC[C@]43[C@@H]65)C2)C1 [Vincristine] | – | – | – | % Phosphatase Activity (compared to DMSO) PRL-1 (recombinant PRL-1; [2]): 85%; % Phosphatase Activity (compared to DMSO) PRL-3 (recombinant PRL-3; [2]): 61%; % Phosphatase Activity (compared to DMSO) PRL-2 (recombinant PRL-2; [2]): 100% |
| O=C(O)c1cccnc1 [Nicotinic Acid] | – | – | – | % Phosphatase Activity (compared to DMSO) PRL-1 (recombinant PRL-1): 95%; % Phosphatase Activity (compared to DMSO) PRL-3 (recombinant PRL-3): 91%; % Phosphatase Activity (compared to DMSO) PRL-2 (recombinant PRL-2): 94% |
| CN(C)C(=O)C(CCN1CCC(O)(c2ccc(Cl)cc2)CC1)(c1ccccc1)c1ccccc1 [Loperamide HCl] | 105% | 81% | 99% | – |
| CC(C)NCC(O)COc1cccc2ccccc12.Cl (stereo not drawn) [Propranolol HCl] | 95% | 70% | 128% | – |
| Clc1ccc(COC(Cn2ccnc2)c2ccc(Cl)cc2Cl)c(Cl)c1 (stereo not drawn) [Miconazole] | 109% | 86% | 101% | – |
| COc1ccc(C[C@@H]2c3cc(OC)c(OC)cc3CC[N@+]2(C)CCC(=O)OCCCCCOC(=O)CC[N@@+]2(C)CCc3cc(OC)c(OC)cc3[C@H]2Cc2ccc(OC)c(OC)c2)cc1OC [Cisatracurium Besylate] | 99% | 79% | 103% | – |
| O=c1oc2c(O)c(O)cc3c(=O)oc4c(O)c(O)cc1c4c23 [Ellagic acid] | 98% | 68% | 89% | – |

Source: publication PMC8119466, “A screen of FDA-approved drugs identifies inhibitors of protein tyrosine phosphatase 4A3 (PTP4A3 or PRL-3)” (Scientific Reports, 2021)
